Laboratory results as given in article PMC10140010 (Investigational New Drugs, 2023).
Where “and” joins values, the source holds several entries; their conditions need not be identical. Equal entries are not always repeated.

Experiments:
CYP1A2 = test: Hepatic enzyme induction in human hepatocytes; format: in vitro ADME; settings: 10 µM, human hepatocytes from three donors
Protocol: (§1) Human hepatocytes derived from three donors were used for evaluating for hepatic enzyme inducing activity. […] The gene expression related to cytochrome P450 isoenzyme CYP3A4 in hepatocytes of one of the three donors increased with iruplinalkib 1 µM.

OCT2 = molecular target: T1, OCT2 (Homo sapiens, UniProt O15244); test: Uptake substrate investigation in HEK293 cells expressing transporter; format: in vitro ADME; settings: for Uptake transport activity, Mean / Ratio of uptake transit activity / Uptake transport activity, Net value: Suppl. Table 11; for Ratio of uptake transit activity / Uptake transport activity, Net value: OCT2-293 vs MOCK293
T1 construct: No ESH9G27; host or cells: HEK293
T1 sequence (O15244 1-555): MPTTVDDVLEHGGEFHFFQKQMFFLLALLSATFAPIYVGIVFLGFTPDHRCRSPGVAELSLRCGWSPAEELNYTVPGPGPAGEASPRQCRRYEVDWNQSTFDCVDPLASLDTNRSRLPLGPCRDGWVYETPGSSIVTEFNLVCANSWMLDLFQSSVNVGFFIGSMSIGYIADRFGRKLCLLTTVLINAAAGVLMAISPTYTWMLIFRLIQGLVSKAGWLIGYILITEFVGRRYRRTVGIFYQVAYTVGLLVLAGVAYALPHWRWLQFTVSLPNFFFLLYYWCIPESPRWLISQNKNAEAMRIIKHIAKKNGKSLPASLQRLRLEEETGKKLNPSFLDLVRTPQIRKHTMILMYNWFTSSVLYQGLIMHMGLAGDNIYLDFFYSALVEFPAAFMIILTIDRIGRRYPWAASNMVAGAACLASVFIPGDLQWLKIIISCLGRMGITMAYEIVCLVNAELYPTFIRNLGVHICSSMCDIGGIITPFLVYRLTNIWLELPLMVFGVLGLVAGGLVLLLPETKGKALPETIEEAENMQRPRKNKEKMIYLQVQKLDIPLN

CYP3A4 = test: Hepatic enzyme induction in human hepatocytes (gene expression); format: in vitro ADME
Protocol: as §1

OAT1 = test: Uptake substrate investigation in HEK293 cells expressing transporter
Description: (§2) The engineered NIH-3T3 (CD74-ROS1 fusion gene) cells was obtained from Nanjing GenScript Biotechnology Co., Ltd. The engineered Ba/F3 (SLC34A2-ROS1 fusion gene) cell line was obtained from Kyinno Biotechnology (Beijing) Co., Ltd. The HCC-78 (SLC34A2-ROS1 fusion gene) cell line was purchased from Shanghai Hongshun Biotechnology Co., Ltd. The engineered NIH-3T3 (CD74-ROS1 fusion gene) cells was obtained from Nanjing GenScript Biotechnology Co., Ltd. The engineered HEK293 cell lines with OATP1B1 (Lot. No ESH6G27), OATP1B3 (Lot. No ESH7G27), OCT2 (Lot. No ESH9G27), OAT1 (Lot. No ESHCG27), OAT3 (Lot. […] No ESHDG27) were purchased from GenoMembrane and validated using the specific substrate for each transporter. All cells were cultured at 37℃ in a 5% CO2 atmosphere. Cell culture reagents were obtained from Life Technologies, Inc. See Supplemental Table 1 for details on the source of the cell lines and the media used.

[1] = Recovery in dialysis device and stability in plasma during dialysis; format: in vitro ADME; settings: 0.2, 2 and 10 µM, all species
Protocol: At three test concentrations (0.2, 2 and 10 µM), the plasma protein binding rate of iruplinalkib is as follows (Fig. 3a). […] With the increase of concentration, the protein binding rates of iruplinalkib in rat plasma decreased gradually, showing a certain concentration dependence, and there was no concentration dependence of protein binding rate observed in other species plasma.

OATP1B3 [2] = molecular target: T2, OATP1B3 (Homo sapiens, UniProt Q9NPD5); test: Uptake substrate investigation in HEK293 cells expressing transporter; settings: for Uptake transport activity, Mean: OATP1B3-293; for Uptake transport activity, Mean / Ratio of uptake transit activity / Uptake transport activity, Net value: Suppl. Table 11; for Ratio of uptake transit activity / Uptake transport activity, Net value: OATP1B3-293 vs MOCK293
T2 sequence (Q9NPD5 1-702): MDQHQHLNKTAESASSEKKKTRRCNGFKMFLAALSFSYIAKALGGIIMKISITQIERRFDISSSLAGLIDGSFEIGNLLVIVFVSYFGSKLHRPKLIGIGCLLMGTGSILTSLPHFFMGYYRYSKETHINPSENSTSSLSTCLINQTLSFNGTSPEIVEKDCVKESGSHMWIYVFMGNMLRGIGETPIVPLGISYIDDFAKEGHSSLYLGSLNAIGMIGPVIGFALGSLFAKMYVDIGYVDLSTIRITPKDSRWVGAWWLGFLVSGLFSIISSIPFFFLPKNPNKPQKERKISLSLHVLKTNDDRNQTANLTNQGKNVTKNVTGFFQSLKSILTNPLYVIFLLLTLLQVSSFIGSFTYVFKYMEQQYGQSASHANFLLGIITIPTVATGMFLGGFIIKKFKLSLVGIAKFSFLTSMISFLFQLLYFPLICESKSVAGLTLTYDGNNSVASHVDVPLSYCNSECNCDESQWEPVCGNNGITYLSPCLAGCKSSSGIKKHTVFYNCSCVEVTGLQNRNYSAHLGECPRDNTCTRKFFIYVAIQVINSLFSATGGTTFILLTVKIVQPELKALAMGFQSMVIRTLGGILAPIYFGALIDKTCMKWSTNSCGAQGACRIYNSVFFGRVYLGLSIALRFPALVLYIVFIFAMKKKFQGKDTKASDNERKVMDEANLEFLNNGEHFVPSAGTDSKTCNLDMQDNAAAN
Description: as §2

OATP1B3 [3] = test: as above
Description: as §2

EGFR^L858R/T790M = EGFR^L858R/T790M (Homo sapiens, UniProt P00533, L858R/T790M); test: HTRF kinase activity assay
Chain of EGFR^L858R/T790M (P00533 25-1210 T790M/L858R): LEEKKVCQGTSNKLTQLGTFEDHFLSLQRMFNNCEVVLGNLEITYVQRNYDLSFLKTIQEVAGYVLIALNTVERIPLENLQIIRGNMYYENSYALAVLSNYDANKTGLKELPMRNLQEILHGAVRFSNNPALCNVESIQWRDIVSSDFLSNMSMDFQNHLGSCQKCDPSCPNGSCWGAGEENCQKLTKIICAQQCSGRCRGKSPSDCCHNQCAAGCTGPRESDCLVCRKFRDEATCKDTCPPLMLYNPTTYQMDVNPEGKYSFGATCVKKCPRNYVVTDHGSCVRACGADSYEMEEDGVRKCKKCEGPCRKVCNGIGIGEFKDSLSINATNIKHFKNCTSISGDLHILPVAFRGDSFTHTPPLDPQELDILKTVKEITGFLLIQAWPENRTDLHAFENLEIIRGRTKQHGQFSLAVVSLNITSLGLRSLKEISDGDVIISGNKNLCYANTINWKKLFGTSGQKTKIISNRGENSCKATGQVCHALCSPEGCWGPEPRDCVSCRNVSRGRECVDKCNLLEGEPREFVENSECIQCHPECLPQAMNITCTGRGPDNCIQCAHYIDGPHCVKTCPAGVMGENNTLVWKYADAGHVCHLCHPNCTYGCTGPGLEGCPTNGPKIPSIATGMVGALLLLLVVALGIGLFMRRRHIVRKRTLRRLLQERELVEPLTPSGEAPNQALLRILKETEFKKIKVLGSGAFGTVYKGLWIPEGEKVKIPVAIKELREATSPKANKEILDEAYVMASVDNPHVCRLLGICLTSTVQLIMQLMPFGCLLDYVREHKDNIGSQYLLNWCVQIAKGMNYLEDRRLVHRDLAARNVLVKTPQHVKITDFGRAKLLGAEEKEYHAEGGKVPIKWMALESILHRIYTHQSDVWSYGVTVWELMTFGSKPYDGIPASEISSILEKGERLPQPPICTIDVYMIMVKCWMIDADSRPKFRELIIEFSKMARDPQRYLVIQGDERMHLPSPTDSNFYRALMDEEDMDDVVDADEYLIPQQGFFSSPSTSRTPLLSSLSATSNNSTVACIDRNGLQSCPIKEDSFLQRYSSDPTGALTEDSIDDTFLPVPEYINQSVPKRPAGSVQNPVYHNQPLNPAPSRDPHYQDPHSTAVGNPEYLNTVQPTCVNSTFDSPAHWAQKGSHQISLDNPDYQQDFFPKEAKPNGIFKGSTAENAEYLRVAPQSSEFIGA
Protocol: After the kinase proteins, Ulight-peptide species, adenosine triphosphate (ATP), and compound were mixed, the reaction was carried out at room temperature. Reactions were quenched by the addition of ethylene diamine tetraacetic acid buffer containing Eu antibody and XL665-streptavidin at the indicated time points. Plate reading was performed using an Envision (Perkin Elmer, MA, USA) multifunctional microplate reader.

[4] = MOCK293, test substrate 10 μM, no inhibitor, OAT1 pre-test
[5] = OATP1B1-293 (so in the source), test substrate 10 μM, no inhibitor, OAT1 pre-test
[6] = transporter cells vs MOCK293, test substrate 10 μM, no inhibitor, OAT1 pre-test
[7] = MOCK293, test substrate 10 μM, no inhibitor, OATP1B3 pre-test
[8] = OATP1B1-293 (so in the source), test substrate 10 μM, no inhibitor, OATP1B3 pre-test
[9] = transporter cells vs MOCK293, test substrate 10 μM, no inhibitor, OATP1B3 pre-test

COc1cc(N2CCC3(CCN(C)CC3)CC2)ccc1Nc1ncc(Cl)c(Nc2ccccc2P(C)(C)=O)n1 [Iruplinalkib]
inducer of CYP1A2 (CYP1A2): not an inducer | uptake transport activity ratio, OCT2 (OCT2; 30 µM, 3 µM, 0.3 µM, HEK293): less than two | uptake substrate of OCT2 (OCT2; HEK293): not an uptake substrate | Uptake transport activity, Mean (OCT2; MOCK293 (OCT2 set), 0.3 μM): 7.280 pmol/mg protein/min | Uptake transport activity, Mean (OCT2; MOCK293 (OCT2 set), 3 μM): 80.35 pmol/mg protein/min | Uptake transport activity, Mean (OCT2; MOCK293 (OCT2 set), 30 μM): 999.8 pmol/mg protein/min | Uptake transport activity, Mean (OCT2; OCT2-293, 0.3 μM): 8.178 pmol/mg protein/min | Uptake transport activity, Mean (OCT2; OCT2-293, 3 μM): 88.23 pmol/mg protein/min | Uptake transport activity, Mean (OCT2; OCT2-293, 30 μM): 1165.9 pmol/mg protein/min | Ratio of uptake transit activity (OCT2; 0.3 μM): 1.12 | Uptake transport activity, Net value (OCT2; 0.3 μM): 0.90 pmol/mg protein/min | Ratio of uptake transit activity (OCT2; 3 μM): 1.10 | Uptake transport activity, Net value (OCT2; 3 μM): 7.88 pmol/mg protein/min | Ratio of uptake transit activity (OCT2; 30 μM): 1.17 | Uptake transport activity, Net value (OCT2; 30 μM): 166.05 pmol/mg protein/min | inducer of CYP3A4 (CYP3A4; 10 µM, human hepatocytes from three donors): not an inducer | induction multiples of CYP3A4 gene expression (CYP3A4; donor 1, 0.1 µM): 0.621 fold | induction multiples of CYP3A4 gene expression (CYP3A4; donor 1, 1 µM): 2.99 fold | induction multiples of CYP3A4 gene expression (CYP3A4; donor 1, 10 µM): 2.38 fold | induction multiples of CYP3A4 gene expression (CYP3A4; donor 2, 0.1 µM): 0.879 fold | induction multiples of CYP3A4 gene expression (CYP3A4; donor 2, 1 µM): 1.80 fold | induction multiples of CYP3A4 gene expression (CYP3A4; donor 2, 10 µM): 2.81 fold | induction multiples of CYP3A4 gene expression (CYP3A4; donor 3, 0.1 µM): 0.964 fold | induction multiples of CYP3A4 gene expression (CYP3A4; donor 3, 1 µM): 9.36 fold | induction multiples of CYP3A4 gene expression (CYP3A4; donor 3, 10 µM): 1.86 fold | uptake substrate of OAT1 (OAT1; HEK293): not an uptake substrate | Uptake transport activity, Mean (OAT1; [4]): 313.6 pmol/mg protein/min | Uptake transport activity, Repeat 1 / Repeat 2 (OAT1; [4]): 302.7 pmol/mg protein/min and 324.5 pmol/mg protein/min | Uptake transport activity, Mean (OAT1; [5]): 289.1 pmol/mg protein/min | Uptake transport activity, Repeat 1 / Repeat 2 (OAT1; [5]): 285.7 pmol/mg protein/min and 292.5 pmol/mg protein/min | Ratio of uptake transit activity (OAT1; [6]): 0.92 | Uptake transport activity, Net value (OAT1; [6]): -24.51 pmol/mg protein/min | remaining rates in plasma after incubation for 5 h [1]: 95–109.3% | recovery ([1]; CD-1 (mouse), SD (rat), Beagle (dog), plasma, read-out: recovery rates in the dialysis device): 81.8 to 99.9% | uptake transport activity ratio, OATP1B3 (OATP1B3 [2]; 30 µM, 3 µM, 0.3 µM, HEK293): less than two | uptake substrate of OATP1B3 (OATP1B3 [2]; HEK293): not an uptake substrate | Uptake transport activity, Mean (OATP1B3 [2]; 0.3 μM): 8.165 pmol/mg protein/min | Uptake transport activity, Mean (OATP1B3 [2]; 3 μM): 57.94 pmol/mg protein/min | Uptake transport activity, Mean (OATP1B3 [2]; 30 μM): 641.1 pmol/mg protein/min | Ratio of uptake transit activity (OATP1B3 [2]; 0.3 μM): 1.38 | Uptake transport activity, Net value (OATP1B3 [2]; 0.3 μM): 2.263 pmol/mg protein/min | Ratio of uptake transit activity (OATP1B3 [2]; 3 μM): 1.29 | Uptake transport activity, Net value (OATP1B3 [2]; 3 μM): 12.964 pmol/mg protein/min | Ratio of uptake transit activity (OATP1B3 [2]; 30 μM): 1.32 | Uptake transport activity, Net value (OATP1B3 [2]; 30 μM): 156.58 pmol/mg protein/min | Uptake transport activity, Mean (OATP1B3 [3]; MOCK293 (OATP1B3 set), 0.3 μM, Suppl. Table 11): 5.902 pmol/mg protein/min | Uptake transport activity, Mean (OATP1B3 [3]; MOCK293 (OATP1B3 set), 3 μM, Suppl. Table 11): 44.98 pmol/mg protein/min | Uptake transport activity, Mean (OATP1B3 [3]; MOCK293 (OATP1B3 set), 30 μM, Suppl. Table 11): 484.5 pmol/mg protein/min | Uptake transport activity, Mean (OATP1B3 [3]; [7]): 230.3 pmol/mg protein/min | Uptake transport activity, Repeat 1 / Repeat 2 (OATP1B3 [3]; [7]): 221.3 pmol/mg protein/min and 239.2 pmol/mg protein/min | Uptake transport activity, Mean (OATP1B3 [3]; [8]): 327.9 pmol/mg protein/min | Uptake transport activity, Repeat 1 / Repeat 2 (OATP1B3 [3]; [8]): 313.3 pmol/mg protein/min and 342.6 pmol/mg protein/min | Ratio of uptake transit activity (OATP1B3 [3]; [9]): 1.42 | Uptake transport activity, Net value (OATP1B3 [3]; [9]): 97.7 pmol/mg protein/min | IC50 (EGFR^L858R/T790M): 16.7 ± 8.11 nM
